Experimental data reported in patent publication US8058306B2, “Phenyl pyrrole aminoguanidine derivatives” (Action Pharma A/S, priority 2006, dated 2011).
Several values for one entry are separate records, joined by “and”; a condition that tells them apart may be missing. Identical values can stand only once. Entries after “also recorded” stand apart in the source; their conditions may differ. Like-named read-outs stand apart in the source and are kept apart here.

Assay: Plasma kinetics in rat following intravenous and oral administration
Type: in vivo, Sprague Dawley rats
Details: male rats; for concentration at 24 h: iv; for MRT: read-out: MRT
Procedure: This study determined the intravenous pharmacokinetics and oral bioavailability of compound 1 of the invention (see FIG. 1A, structure no. 1), compound 2 of the invention (see FIG. 1D, structure no. 19) and compound 3 of the invention (see FIG. 1I, structure no. 53) following administration to Sprague Dawley rats at a dose level of 10 mg/kg.
Six groups of 3 male rats received either a single intravenous or single oral administration of compound 1, 2 or 3 of the invention at a dose level of 10 mg/kg. Blood samples were obtained at various times after dosing. Plasma samples were analysed for unchanged test item using a suitable LC-MS/MS method. Pharmacokinetic parameters were estimated from individual plasma concentrations.
Eighteen male rats each received either a single intravenous or a single oral administration of either compound 1, 2 or 3 at a dose level of 10 mg/kg. The formulation was orally administered to each animal by gastric gavage and intravenously administered to each animal via a tail vein. The dose was administered at a dose volume of 5 mL/kg. The formulations were administered to each animal according to the details in the following table:
Blood samples (ca 0.3 mL) were removed from the femoral vein of each animal into tubes containing lithium heparin as anticoagulant.
Blood samples were collected from 3 rats at the following times after dose administration: • 3, 6, 15, 45 min and 1.5, 2.5, 4, 6, 8, 24 h post dose. Oral Administration
Blood samples were collected from 3 rats at the following times after dose administration: • 5, 15, 45 min and 1.5, 2.5, 4, 6, 8, 24 h post dose. Processing of Blood Samples
Pharmacokinetic parameters of compound 1, 2 and 3 were derived by non-compartmental analysis using WinNonLin Pro version 5.0.1 (Pharsight 2005). The following parameters were derived, where appropriate, from the individual plasma concentration versus time profiles:
• F % The absolute oral bioavailability calculated as [AUC0-t (oral)*Dose(iv)/AUC0-t (iv)*Dose (oral)]*100 based on mean values derived after oral and intravenous administration Consideration was given to the estimation of λz and corresponding t1/2 values. Three or more points are required within the terminal phase for λz and t1/2 to be estimated. The following additional variables were tabulated to aid identification of potentially unreliable estimates of t1/2 and AUC:
Pharmacokinetic parameters were reported as geometric mean except Tmax which was reported as the median. Geometric coefficient of variation was calculated as: […]
Actual sampling times were used for all calculations of pharmacokinetic parameters. Plasma concentrations that were below the limit of quantification were taken as zero for the pharmacokinetic analysis.

[1] = male, Sprague Dawley, rat, plasma, po, 10 mg/kg, oral 10 mg/kg, individual animals
[2] = oral 10 mg/kg, individual animals, acetate, 10 mg/kg

Structure (SMILES): N=C(N)NN=CC=Cc1cccn1-c1ccccc1[N+](=O)[O-] [Compound 2, [1-(2-nitrophenyl)-1H-pyrrol-2-yl-allylideneamino]guanidinium acetate]
- concentration at 24 h (male, Sprague Dawley, rat, plasma, 10 mg/kg, single intravenous 10 mg/kg, 24 h, individual animals, LLOQ 2.50, read-out: Sample Concentration in plasma): 3.95 ng/mL
- concentration at 24 h (male, Sprague Dawley, rat, plasma, 10 mg/kg, single intravenous 10 mg/kg, 24 h, mean, read-out: Mean Concentration in plasma): 3.95 ng/mL
- AUC(0-t) (male, Sprague Dawley, rat, plasma, po, 10 mg/kg, oral 10 mg/kg, Arithmetic Mean, read-out: AUC0-t): 67.4 ng·h/mL
- Cmax (male, Sprague Dawley, rat, plasma, po, 10 mg/kg, oral 10 mg/kg, Arithmetic Mean, read-out: Cmax): 31.2 ng/mL
- Tmax (male, Sprague Dawley, rat, plasma, po, 10 mg/kg, oral 10 mg/kg, Arithmetic Mean, read-out: tmax): 1.75 h
- AUC(0-t) (male, Sprague Dawley, rat, plasma, po, 10 mg/kg, oral 10 mg/kg, Geometric mean, read-out: AUC0-t): 66.1 ng·h/mL
- Cmax (male, Sprague Dawley, rat, plasma, po, 10 mg/kg, oral 10 mg/kg, Geometric mean, read-out: Cmax): 26.3 ng/mL
- MRT (male, Sprague Dawley, rat, plasma, po, 10 mg/kg, oral 10 mg/kg, Geometric mean): 3.06 h
- half-life (male, Sprague Dawley, rat, plasma, po, 10 mg/kg, oral 10 mg/kg, Geometric mean, read-out: t1/2 (converted)): 2.25 h
- Tmax (male, Sprague Dawley, rat, plasma, po, 10 mg/kg, oral 10 mg/kg, Geometric mean, read-out: tmax): 1.16 h
- AUC(0-t) (male, Sprague Dawley, rat, plasma, po, 10 mg/kg, oral 10 mg/kg, Median, read-out: AUC0-t): 62.6 ng·h/mL
- Cmax (male, Sprague Dawley, rat, plasma, po, 10 mg/kg, oral 10 mg/kg, Median, read-out: Cmax): 18.8 ng/mL
- Tmax (male, Sprague Dawley, rat, plasma, po, 10 mg/kg, oral 10 mg/kg, Median, read-out: tmax): 2.5 h
- AUC(0-inf) [1]: 102 ng·h/mL
- AUC(0-t) (male, Sprague Dawley, rat, plasma, po, 10 mg/kg, oral 10 mg/kg, individual animals, read-out: AUC0-t): 85.6 ng·h/mL
- MRT [1]: 3.06 h
- half-life (male, Sprague Dawley, rat, plasma, po, 10 mg/kg, oral 10 mg/kg, individual animals, read-out: t1/2 (converted)): 2.25 h
- Tmax (male, Sprague Dawley, rat, plasma, po, 10 mg/kg, oral 10 mg/kg, from mean plasma concentrations, read-out: time post dose at which maximum plasma concentration was observed (tmax)): 2.5 h
- half-life (male, Sprague Dawley, rat, plasma, po, 10 mg/kg, oral 10 mg/kg, read-out: apparent terminal half-life (converted)): 2.25 h
- concentration at 0.05 h (male, Sprague Dawley, rat, plasma, po, 10 mg/kg, single oral 10 mg/kg, 0.05 h, individual animals, LLOQ 2.50, read-out: Sample Concentration in plasma): 4.68 ng/mL
- concentration at 0.05 h (male, Sprague Dawley, rat, plasma, po, 10 mg/kg, single oral 10 mg/kg, 0.05 h, mean, read-out: Mean Concentration in plasma): 4.68 ng/mL
- concentration at 0.25 h (male, Sprague Dawley, rat, plasma, po, 10 mg/kg, single oral 10 mg/kg, 0.25 h, mean of 3, read-out: Mean Concentration in plasma): 25.5 ng/mL
- concentration at 0.75 h (male, Sprague Dawley, rat, plasma, po, 10 mg/kg, single oral 10 mg/kg, 0.75 h, mean of 3, read-out: Mean Concentration in plasma): 13.9 ng/mL
- concentration at 1.5 h (male, Sprague Dawley, rat, plasma, po, 10 mg/kg, single oral 10 mg/kg, 1.5 h, individual animals, read-out: Sample Concentration in plasma): 9.56 ng/mL
- concentration at 1.5 h (male, Sprague Dawley, rat, plasma, po, 10 mg/kg, single oral 10 mg/kg, 1.5 h, mean of 3, read-out: Mean Concentration in plasma): 12.3 ng/mL
- concentration at 2.5 h (male, Sprague Dawley, rat, plasma, po, 10 mg/kg, single oral 10 mg/kg, 2.5 h, individual animals, read-out: Sample Concentration in plasma): 16.5 ng/mL
- concentration at 2.5 h (male, Sprague Dawley, rat, plasma, po, 10 mg/kg, single oral 10 mg/kg, 2.5 h, mean of 3, read-out: Mean Concentration in plasma): 17.1 ng/mL
- concentration at 4 h (male, Sprague Dawley, rat, plasma, po, 10 mg/kg, single oral 10 mg/kg, 4 h, mean of 3, read-out: Mean Concentration in plasma): 7.91 ng/mL
- concentration at 6 h (male, Sprague Dawley, rat, plasma, po, 10 mg/kg, single oral 10 mg/kg, 6 h, individual animals, read-out: Sample Concentration in plasma): 2.76 ng/mL
- concentration at 6 h (male, Sprague Dawley, rat, plasma, po, 10 mg/kg, single oral 10 mg/kg, 6 h, mean of 3, read-out: Mean Concentration in plasma): 3.81 ng/mL
- MAT (oral 10 mg/kg, individual animals): -0.465 h
- AUC(0-t) [2]: 62.6 ng·h/mL and 54.0 ng·h/mL
- Cmax [2]: 58.4 ng/mL and 16.5 ng/mL
- Tmax [2]: 0.250 h
- maximum observed plasma concentration, mean value (oral 10 mg/kg, at tmax): 17.1 ng/mL
- Sample Concentration in plasma (single intravenous 10 mg/kg, 0.05 h, individual animals, acetate, 10 mg/kg): 2270 ng/mL and 3150 ng/mL
- Sample Concentration in plasma (single intravenous 10 mg/kg, 0.1 h, individual animals, acetate, 10 mg/kg): 1020 ng/mL and 1410 ng/mL
- Sample Concentration in plasma (single intravenous 10 mg/kg, 0.25 h, individual animals, acetate, 10 mg/kg): 612 ng/mL and 712 ng/mL
- Sample Concentration in plasma (single intravenous 10 mg/kg, 0.75 h, individual animals, acetate, 10 mg/kg): 237 ng/mL and 334 ng/mL
- Sample Concentration in plasma (single intravenous 10 mg/kg, 1.5 h, individual animals, acetate, 10 mg/kg): 232 ng/mL and 168 ng/mL
- Sample Concentration in plasma (single intravenous 10 mg/kg, 2.5 h, individual animals, acetate, 10 mg/kg): 183 ng/mL and 194 ng/mL
- Sample Concentration in plasma (single intravenous 10 mg/kg, 4 h, individual animals, acetate, 10 mg/kg): 158 ng/mL and 115 ng/mL
- Sample Concentration in plasma (single intravenous 10 mg/kg, 6 h, individual animals, acetate, 10 mg/kg): 116 ng/mL and 58.1 ng/mL
- Sample Concentration in plasma (single intravenous 10 mg/kg, 8 h, individual animals, LLOQ 2.50, acetate, 10 mg/kg): 42.7 ng/mL and 98.4 ng/mL and 54.1 ng/mL
- Sample Concentration in plasma (single intravenous 10 mg/kg, 24 h, individual animals, LLOQ 2.50, acetate, 10 mg/kg): <LLOQ
- adverse effects (single intravenous or oral administration, 10 mg/kg, acetate): No adverse effects; also recorded: No adverse affects
- Sample Concentration in plasma (single oral 10 mg/kg, 0.05 h, individual animals, LLOQ 2.50, acetate, 10 mg/kg): <LLOQ
- Sample Concentration in plasma (single oral 10 mg/kg, 0.25 h, individual animals, acetate, 10 mg/kg): 9.11 ng/mL and 9.01 ng/mL and 58.4* ng/mL
- Sample Concentration in plasma (single oral 10 mg/kg, 0.75 h, individual animals, acetate, 10 mg/kg): 9.02 ng/mL and 10.4 ng/mL and 22.4 ng/mL
- Sample Concentration in plasma (single oral 10 mg/kg, 1.5 h, individual animals, acetate, 10 mg/kg): 9.84 ng/mL and 17.4 ng/mL
- Sample Concentration in plasma (single oral 10 mg/kg, 2.5 h, individual animals, acetate, 10 mg/kg): 18.8 ng/mL and 16.1 ng/mL
- Sample Concentration in plasma (single oral 10 mg/kg, 4 h, individual animals, acetate, 10 mg/kg): 12.6 ng/mL and 4.79 ng/mL and 6.35 ng/mL
- Sample Concentration in plasma (single oral 10 mg/kg, 6 h, individual animals, acetate, 10 mg/kg): 3.74 ng/mL and 4.94 ng/mL
- Sample Concentration in plasma (single oral 10 mg/kg, 8 h, individual animals, LLOQ 2.50): <LLOQ
- Mean Concentration in plasma (single oral 10 mg/kg, 8 h, mean, LLOQ 2.50): <LLOQ
- Sample Concentration in plasma (single oral 10 mg/kg, 24 h, individual animals, LLOQ 2.50): <LLOQ
- Mean Concentration in plasma (single oral 10 mg/kg, 24 h, mean, LLOQ 2.50): <LLOQ
